How the values were obtained:
human Gal-3 (hGal-3) = human Gal-3 (hGal-3) (Homo sapiens (Human), UniProt P17931); test: Competitive binding assay: binding of biotinylated hGal-3 to microplate-adsorbed asialofetuin (ASF); details: Activity on hGal-3; mean values of several measurements
In short: (§1)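 Biotin-hGal-3/hGal-1 300-1000 ng/mL + cpd (DMSO dilutions) on ASF-coated plate, 3 h 4° C; wash; SA-HRP 80 ng/mL 1 h 4° C; wash; ABTS. IC50 = mean of several runs. hGal-1 preferably Cys→Ser (all six) mutant.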

human Gal-1 (hGal-1) = test: Competitive binding assay: binding of biotinylated hGal-1 to microplate-adsorbed asialofetuin (ASF); details: Activities on hGal-1; mean values of several measurements
Chain of human Gal-1 (hGal-1) (P09382 2-135 limits assumed): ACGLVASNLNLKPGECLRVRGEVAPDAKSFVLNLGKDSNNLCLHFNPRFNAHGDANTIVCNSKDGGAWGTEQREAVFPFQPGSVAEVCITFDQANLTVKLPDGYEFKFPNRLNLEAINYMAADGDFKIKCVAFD
In short: as §1

Chain of human Gal-3 (hGal-3) (P17931 whole entry): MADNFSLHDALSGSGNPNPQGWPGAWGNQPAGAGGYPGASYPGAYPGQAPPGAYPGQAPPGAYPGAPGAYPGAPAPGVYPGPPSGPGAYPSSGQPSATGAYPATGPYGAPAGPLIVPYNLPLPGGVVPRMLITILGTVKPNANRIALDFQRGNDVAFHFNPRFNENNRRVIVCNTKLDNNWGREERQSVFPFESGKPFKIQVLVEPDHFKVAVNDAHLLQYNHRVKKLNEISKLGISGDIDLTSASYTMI

SMILES | IC50 (human Gal-3 (hGal-3)) [µM] | IC50 (human Gal-1 (hGal-1)) [µM]
CO[C@@H]1[C@@H](n2cc(-c3ccc(C)c(F)c3F)nn2)[C@@H](O)[C@@H](CO)O[C@@H]1Cc1cc(C2(C)CCCC2)on1 [Ex 1.274] | 0.11 | 5.54
CO[C@@H]1[C@@H](n2cc(-c3ccc(Cl)c(F)c3F)nn2)[C@@H](O)[C@@H](CO)O[C@@H]1Cc1cc(C2(C)CCCC2)on1 [Ex 1.275] | 0.11 | 3.3
CO[C@@H]1[C@@H](n2cc(-c3cc(F)c(F)c(F)c3)nn2)[C@@H](O)[C@@H](CO)O[C@@H]1Cc1cc(C2(C#N)CCCC2)on1 [Ex 1.276] | 0.097 | 5.1
CO[C@@H]1[C@@H](n2cc(-c3ccc(C)c(F)c3F)nn2)[C@@H](O)[C@@H](CO)O[C@@H]1Cc1cc(C2(C#N)CCCC2)on1 [Ex 1.278] | 0.093 | 6.7
CO[C@@H]1[C@@H](n2cc(-c3ccc(Cl)c(F)c3F)nn2)[C@@H](O)[C@@H](CO)O[C@@H]1CC1CC(C(C)(C)CO)=NO1 (stereo partly drawn) [Ex 1.280] | 0.3 | 1.82
CO[C@@H]1[C@@H](n2cc(-c3cc(F)c(F)c(F)c3)nn2)[C@@H](O)[C@@H](CO)O[C@@H]1CC1CC(C(C)(C)CO)=NO1 (stereo partly drawn) [Ex 1.281] | 0.53 | 2.55
CO[C@@H]1[C@@H](n2cc(-c3cc(F)c(F)c(F)c3)nn2)[C@@H](O)[C@@H](CO)O[C@@H]1Cc1cc(C2(C)CCOCC2)no1 [Ex 1.282] | 0.11 | 1.77
CO[C@@H]1[C@@H](n2cc(-c3ccc(F)c(F)c3F)nn2)[C@@H](O)[C@@H](CO)O[C@@H]1Cc1cc(C2(C)CCOCC2)no1 [Ex 1.283] | 0.049 | 0.38
CO[C@@H]1[C@@H](n2cc(-c3ccc(C)c(F)c3F)nn2)[C@@H](O)[C@@H](CO)O[C@@H]1Cc1cc(C2(C)CCOCC2)no1 [Ex 1.284] | 0.15 | 5.85
CO[C@@H]1[C@@H](n2cc(-c3ccc(Cl)c(F)c3F)nn2)[C@@H](O)[C@@H](CO)O[C@@H]1Cc1cc(C2(C)CCOCC2)no1 [Ex 1.285] | 0.051 | 1.1
CO[C@@H]1[C@@H](n2cc(-c3cc(F)c(F)c(F)c3)nn2)[C@@H](O)[C@@H](CO)O[C@@H]1Cc1cc(C2(C)CCCC2)no1 [Ex 1.286] | 0.23 | 3.08
CO[C@@H]1[C@@H](n2cc(-c3ccc(F)c(F)c3F)nn2)[C@@H](O)[C@@H](CO)O[C@@H]1Cc1cc(C2(C)CCCC2)no1 [Ex 1.287] | 0.069 | 0.59
CO[C@@H]1[C@@H](n2cc(-c3ccc(C)c(F)c3F)nn2)[C@@H](O)[C@@H](CO)O[C@@H]1Cc1cc(C2(C)CCCC2)no1 [Ex 1.288] | 0.063 | 5.75
CO[C@@H]1[C@@H](n2cc(-c3ccc(Cl)c(F)c3F)nn2)[C@@H](O)[C@@H](CO)O[C@@H]1Cc1cc(C2(C)CCCC2)no1 [Ex 1.289] | 0.059 | 1.77
CO[C@@H]1[C@@H](n2cc(-c3cc(F)c(F)c(F)c3)nn2)[C@@H](O)[C@@H](CO)O[C@@H]1Cc1cc(C2(C#N)CCCC2)no1 [Ex 1.290] | 0.27 | 2.12
CO[C@@H]1[C@@H](n2cc(-c3ccc(F)c(F)c3F)nn2)[C@@H](O)[C@@H](CO)O[C@@H]1Cc1cc(C2(C#N)CCCC2)no1 [Ex 1.291] | 0.14 | 0.94
CO[C@@H]1[C@@H](n2cc(-c3ccc(C)c(F)c3F)nn2)[C@@H](O)[C@@H](CO)O[C@@H]1Cc1cc(C2(C#N)CCCC2)no1 [Ex 1.292] | 0.051 | 3.54
CO[C@@H]1[C@@H](n2cc(-c3ccc(Cl)c(F)c3F)nn2)[C@@H](O)[C@@H](CO)O[C@@H]1Cc1cc(C2(C#N)CCCC2)no1 [Ex 1.293] | 0.093 | 2.92
COc1ccc(C2=NOC(C[C@H]3O[C@H](CO)[C@H](O)[C@H](n4cc(-c5cc(F)c(F)c(F)c5)nn4)[C@H]3OC)C2)cc1 (stereo partly drawn) [Ex 1.294] | 1.54 | 14
OC[C@H]1O[C@H](CC2CC(c3cc(Cl)ccc3Cl)=NO2)[C@H](O)[C@@H](n2cc(-c3cc(F)c(F)c(F)c3)nn2)[C@H]1O (stereo partly drawn) [Ex 1.295] | 1.8 | 17.1
COc1ccc(-c2cc(C[C@H]3O[C@H](CO)[C@H](O)[C@H](n4cc(-c5cc(F)c(F)c(F)c5)nn4)[C@H]3O)no2)cc1 [Ex 1.296] | 1.41 | 52.2

SMILES | IC50 (human Gal-3 (hGal-3)) [µM] | IC50 (human Gal-1 (hGal-1)) [µM]
CC(C)(C)OC(=O)N1CCC(C2=NOC(C[C@H]3O[C@H](CO)[C@H](O)[C@H](n4cc(-c5c(F)cccc5F)nn4)[C@H]3O)C2)CC1 (stereo partly drawn) [Ex 1.298] | 2.5 | 0.99
COc1cccc(-c2cn([C@H]3[C@@H](O)[C@@H](CO)O[C@H](CC4CC(C5CCN(C(=O)OC(C)(C)C)CC5)=NO4)[C@@H]3O)nn2)c1 (stereo partly drawn) [Ex 1.300] | 1.41 | 2.27
CC(C)(C)OC(=O)N1CCC(C2=NOC(C[C@H]3O[C@H](CO)[C@H](O)[C@H](n4cc(-c5cccc(C(F)(F)F)c5)nn4)[C@H]3O)C2)CC1 (stereo partly drawn) [Ex 1.301] | 2.7 | 2.89
CO[C@@H]1[C@@H](n2cc(-c3cc(F)c(F)c(F)c3)nn2)[C@@H](O)[C@@H](CO)O[C@@H]1Cc1cc(C(C)(C)C(F)F)no1 [Ex 1.303] | 0.14 | 0.55
CO[C@@H]1[C@@H](n2cc(-c3ccc4ccccc4c3)nn2)[C@@H](O)[C@@H](CO)O[C@@H]1CC1CC(C2CCN(C(=O)OC(C)(C)C)CC2)=NO1 (stereo partly drawn) [Ex 1.304] | 1.62 | 3.91
CO[C@@H]1[C@@H](n2cc(-c3cccc4ccccc34)nn2)[C@@H](O)[C@@H](CO)O[C@@H]1CC1CC(C2CCN(C(=O)OC(C)(C)C)CC2)=NO1 (stereo partly drawn) [Ex 1.305] | 1.86 | 1.18
CO[C@@H]1[C@@H](n2cc(-c3cc(F)c(F)c(F)c3)nn2)[C@@H](O)[C@@H](CO)O[C@@H]1Cc1cc(C)no1 [Ex 1.306] | 1.22 | 6.19
CCc1cc(C[C@H]2O[C@H](CO)[C@H](O)[C@H](n3cc(-c4cc(F)c(F)c(F)c4)nn3)[C@H]2OC)on1 [Ex 1.307] | 0.67 | 7.22
CO[C@@H]1[C@@H](n2cc(-c3cc(F)c(F)c(F)c3)nn2)[C@@H](O)[C@@H](CO)O[C@@H]1Cc1cc(C(C)C)no1 [Ex 1.308] | 0.18 | 2.37
CCOC(C)(C)c1cc(C[C@H]2O[C@H](CO)[C@H](O)[C@H](n3cc(-c4cc(F)c(F)c(F)c4)nn3)[C@H]2OC)on1 [Ex 1.309] | 0.69 | 2.74
CO[C@@H]1[C@@H](n2cc(-c3ccccc3)nn2)[C@@H](O)[C@@H](CO)O[C@@H]1CC1CC(C2CCN(C(=O)OC(C)(C)C)CC2)=NO1 (stereo partly drawn) [Ex 1.310] | 3.62 | 0.48
CO[C@@H]1[C@@H](n2cc(-c3nc(Br)cs3)nn2)[C@@H](O)[C@@H](CO)O[C@@H]1CC1CC(C2CCN(C(=O)OC(C)(C)C)CC2)=NO1 (stereo partly drawn) [Ex 1.311] | 2.38 | 0.065
CO[C@@H]1[C@@H](n2cc(-c3cc(F)c(F)c(F)c3)nn2)[C@@H](O)[C@@H](CO)O[C@@H]1Cc1cc(C2(O)CCCC2)no1 [Ex 1.312] | 0.14 | 4.24
CO[C@@H]1[C@@H](n2cc(-c3cc(F)c(F)c(F)c3)nn2)[C@@H](O)[C@@H](CO)O[C@@H]1Cc1cc(C2(CC#N)CC2)no1 [Ex 1.313] | 0.13 | 2.94
COCC(C)(C)c1cc(C[C@H]2O[C@H](CO)[C@H](O)[C@H](n3cc(-c4cc(F)c(F)c(F)c4)nn3)[C@H]2OC)on1 [Ex 1.314] | 0.13 | 1.38
CO[C@@H]1[C@@H](n2cc(-c3cc(F)c(F)c(F)c3)nn2)[C@@H](O)[C@@H](CO)O[C@@H]1Cc1cc(C(C)(C)CNC(=O)OC(C)(C)C)no1 [Ex 1.315] | 0.27 | 2.21
CO[C@@H]1[C@@H](n2cc(-c3cc(F)c(F)c(F)c3)nn2)[C@@H](O)[C@@H](CO)O[C@@H]1Cc1cc(C(C)(C)CN)no1 [Ex 1.316] | 0.19 | 2.2
CO[C@@H]1[C@@H](n2cc(-c3ccc(C)c(F)c3F)nn2)[C@@H](O)[C@@H](CO)O[C@@H]1Cc1cc(C(O)(c2ccccn2)C2CC2)on1 (stereo partly drawn) [Ex 1.317] | 0.31 | 9.69
CO[C@@H]1[C@@H](n2cc(-c3ccc(C)c(F)c3F)nn2)[C@@H](O)[C@@H](CO)O[C@@H]1Cc1cc(C(C)(O)c2ccccc2)on1 (stereo partly drawn) [Ex 1.318] | 0.16 | 8.87
CO[C@@H]1[C@@H](n2cc(-c3ccc(C)c(F)c3F)nn2)[C@@H](O)[C@@H](CO)O[C@@H]1Cc1cc(C2(O)CC2)on1 [Ex 1.319] | 0.14 | 7.16
CO[C@@H]1[C@@H](n2cc(-c3ccc(C)c(F)c3F)nn2)[C@@H](O)[C@@H](CO)O[C@@H]1Cc1cc(C2(C)COC2)on1 [Ex 1.320] | 0.075 | 2.62
